Reference: patent US20230140290A1, “SALICYLAMIDE DERIVATIVES AND RELATED METHODS OF MAKING” (THE BOARD OF REGENTS OF THE UNIVERSITY OF TEXAS SY, priority 2020, published 2023)
Like-named read-outs stand apart in the source and are kept apart here.

Legend:
[1] = test system: A549 cells; assay: Cytotoxicity assay (AlamarBlue); conditions: read-out: CC50 (μM), cytotoxic concentration 50%; A549 cell line, 48 h
Description: Cytotoxicity Assay. The cytotoxicity of the compounds was analyzed by commercial kit AlamarBlue® (Invitrogen, Ref. DAL1025). A549 cells at a density of 5×10^3 cells per well in 96-well plates were seeded. […] Cells were then incubated at 37° C. for 48 h following the kit protocol. The cytotoxic concentration 50 (CC50) value was obtained using the statistical package GraphPad Prism. This assay was performed in duplicate.

[2] = test system: HAdV5-GFP; assay: Plaque assay (inhibition of HAdV plaque formation); assay type: cell-based, HAdV-5; conditions: for Selectivity index (SI): ratio of CC50 to IC50 in plaque assay; for inhibition at 10 µM: read-out: Plaque Assay (%) Inhibition (10 μM)
Summary of the method: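 Compounds were present in the post-infection mixture at 10 μM, or at 10 to 0.3 μM for dose-response. Infection used low MOI HAdV5-GFP (0.06 vp/cell) on 80-90% confluent cells, 2 h rocking at 37° C, then a PBS wash.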

[3] = read-out: Plaque Assay IC50 (μM), HAdV5-GFP, low MOI, 293β5 cell line

Row | Structure (SMILES) | CC50 [1] | Selectivity index (SI) [2] | inhibition at 10 µM [2] | IC50 [2, 3] | IC50 ([2]; read-out: Plaque Assay IC50, HAdV5-GFP, low MOI, 293β5 cell line)
1 | CS(=O)(=O)Nc1ccc(Cl)cc1C(=O)Nc1ccc(NC2CCCC2)cc1Cl [Compound 140, 5-Chloro-N-(2-chloro-4-(cyclopentylamino)phenyl)-2-(methylsulfonamido)benzamide] | 35.4 ± 2.7 µM | 20.6 | 99.8 ± 0.4% | 1.72 µM | –
2 | O=C(Nc1ccc(NC2CCCC2)cc1)c1cc(Cl)ccc1O [Compound 141, 5-Chloro-N-(4-(cyclopentylamino)phenyl)-2-hydroxybenzamide] | 10 ± 2.2 µM | 3.9 | 99.8 ± 0.3% | 2.6 µM | –
3 | O=C(Nc1ccc(NC2CCCC2)cc1F)c1cc(Cl)ccc1O [Compound 142, 5-Chloro-N-(4-(cyclopentylamino)-2-fluorophenyl)-2-hydroxybenzamide] | 51 ± 13.3 µM | 49.1 | 98.7 ± 0.4% | 1.04 µM | –
4 | O=C(Nc1ccc(NC2CCCC2)c(Cl)c1)c1cc(Cl)ccc1O [Compound 143, 5-Chloro-N-(3-chloro-4-(cyclopentylamino)phenyl)-2-hydroxybenzamide] | 16.9 ± 0.1 µM | 20.1 | 100% | 0.84 µM | 1.34 µM
5 | O=C(Nc1cc(NC2CCCC2)ccc1F)c1cc(Cl)ccc1O [Compound 144, 5-Chloro-N-(5-(cyclopentylamino)-2-fluorophenyl)-2-hydroxybenzamide] | 44 ± 12.8 µM | 32.8 | 99.8 ± 0.4% | 1.34 ± 0.05 µM | –
6 | O=C(NCc1ccc(NC2CCCC2)cc1Cl)c1cc(Cl)ccc1O [Compound 145, 5-Chloro-N-(2-chloro-4-(cyclopentylamino)benzyl)-2-hydroxybenzamide] | 28.3 ± 2.5 µM | 3.6 | 98.5 ± 0.7% | 7.97 ± 0.43 µM | –
7 | CC(C)[C@H](NC(=O)c1cc(Cl)ccc1O)C(=O)Nc1ccc(NC2CCCC2)cc1Cl [Compound 147, (S)-5-chloro-N-(1-((2-chloro-4-(cyclopentylamino)phenyl)amino)-3-methyl-1-oxobutan-2-yl)-2-hydroxybenzamide] | 111 ± 8.4 µM | 28.9 | 99.5 ± 0.7% | 3.83 ± 0.42 µM | –
